Assay results from paper PMC10205807, “Cross-species comparison in nonclinical pharmacokinetics of lenvatinib by a simple HPLC with ultraviolet detection” (Scientific Reports, 2023).

Legend:
[1] = PK study in mice (intravenous and oral); assay type: in vivo
Protocol: Female BALB/cAnNCrj-nu/nu mice were purchased from Charles River Laboratories (Kanagawa, Japan) and were acclimatized for 9 days prior to use in the PK study. At the dosing day, 7-week-old mice were used. E7080 was dissolved in 5% glucose injection to make a 0.3 mg/mL solution for intravenous administration and dissolved in water to make 0.3, 1, and 3 mg/mL solutions for oral administrations. Lenvatinib was intravenously administered at the dose of 3 mg/kg via the tail vein using a disposable syringe and oral administration was performed by gastric gavage at the doses of 3, 10, and 30 mg/kg at the dosing volume of 10 mL/kg (n = 3/time point/dose). Whole blood samples were drawn from the vena cava using heparinized syringes at 5, 15, and 30 min, and 1, 2, 4, 6, 8, 12, and 24 h postdose. Plasma samples were obtained by centrifugation and aliquots of plasma were transferred to a tube and stored below − 15 °C until assayed.
PK parameters of lenvatinib were estimated by model independent analysis using a WinNonlin program (Version 4.1, Pharsight Corporation, Mountain View, CA). The time to reach the maximum plasma concentration (Tmax) and the maximum plasma concentration (Cmax) values were obtained directly from the plasma concentration data. Terminal half-life (T1/2) was calculated by ln2/ke, where ke is the slope of the regression line that fits the portion of the terminal phase (at least three time points) in the log-linear concentration–time curve. AUC0–t and AUMC0–t, the area under the concentration–time curves and the area under the first moment curve, from time = zero to time = t, respectively, were calculated using the lenvatinib concentrations in plasma by the linear/log trapezoidal method. AUC0–inf was calculated by AUC0–t + Ct/ke, and AUMC0–inf was AUMC0–t + Ct × t/ke + Ct/(ke)^2, where Ct is the last measurable concentration at time = t. The plasma concentration at time zero for the intravenous dose was extrapolated, while zero was used for the oral doses. Mean residence time (MRT), total plasma clearance (CLtot) and the volume of distribution at steady state (Vdss) were calculated by AUMC0–inf/AUC0–inf, Dose/AUC0–inf and CLtot × MRT, respectively. Oral bioavailability (F) was estimated by comparing dose-normalized AUC0–inf after oral (AUC0–inf.po) and intravenous (AUC0–inf.iv) administration as follows: F (%) = (AUC0–inf.po/AUC0–inf.iv) × 100.

[2] = test system: plasma protein; assay: in vitro plasma protein binding, dogs; assay type: in vitro ADME
[3] = Stability of lenvatinib in dog plasma and processed samples; assay type: physicochemical, dogs; details: dog plasma; for Freeze/thaw stability, mean percentage bias from the theoretical values: 3 cycles
Protocol: Calibration samples and QC samples for the reproducibility assessment were prepared by spiking 0.05 mL of the working standard solutions to blank plasma (0.05 mL), and QC samples for the stability assessment were prepared by fortifying 0.05 mL of the solution to 1.5 mL of bank plasma. Lenvatinib concentrations in plasma were 0.005, 0.01, 0.03, 0.1, 0.3, 1, 3, 10, 30, and 100 μg/mL for the calibration samples, and were 0.005, 0.01, 1, and 100 μg/mL for the QC samples for reproducibility assessment. Lenvatinib concentrations of QC samples for the stability assessment were 0.01, 1, and 80 μg/mL.
The developed method for the determination of lenvatinib concentrations in plasma was validated and the following validation parameters including linearity, selectivity, intra- and inter-batch reproducibility, extraction recovery, and stability were evaluated in accordance with the bioanalytical guidelines by United States Food and Drug Administration (US-FDA)[7]. […] In the linearity assessment, accuracy of each calibration sample was determined to ensure that relative error (RE) at each concentration was within ± 15% (within ± 20% at the LLOQ). […] Intra-batch accuracy and precision were evaluated using QC samples at the four concentrations, LLOQ, low QC (LQC), mid QC (MQC), and ULOQ. […] Inter-batch accuracy and precision were evaluated by testing a single sample at each concentration across five batches (n = 5 in total). […] Extraction recoveries of lenvatinib and the IS from plasma samples of the four species were evaluated. The recoveries of lenvatinib at the low, mid, and high QC levels (triplicates per concentration), and that of the IS (0.5 μg/mL) were determined. […] Stability of lenvatinib in plasma and processed samples was assessed at the low and high QC levels. Lenvatinib concentrations in samples after storage were compared to the theoretical concentrations and RE values were calculated. […] Freeze–thaw stability in plasma was evaluated up to three freeze–thaw cycles and frozen stability in plasma was evaluated at − 15 °C or below for 4 weeks (mice, rats, and dogs) or 6 weeks (monkeys). […]

[4] = female, BALB/cAnNCrj-nu/nu, mouse, plasma, intravenous 3 mg/kg
[5] = female, BALB/cAnNCrj-nu/nu, mouse, plasma, oral 3 mg/kg
[6] = female, BALB/cAnNCrj-nu/nu, mouse, plasma, oral 10 mg/kg
[7] = female, BALB/cAnNCrj-nu/nu, mouse, plasma, oral 30 mg/kg

Compound: COc1cc2nccc(Oc3ccc(NC(=O)NC4CC4)c(Cl)c3)c2cc1C(N)=O [lenvatinib, Lenvatinib]
- CLint (hepatic intrinsic clearance) ([1]; estimated from oral PK, Fa and Fg assumed unity, BW 0.02 kg): 325 mL/h
- AUC(0-inf) [1, 4]: 8690 ng·h/mL
- MRT [1, 4]: 2.07 h
- C0 ([1]; female, BALB/cAnNCrj-nu/nu, mouse, plasma, intravenous 3 mg/kg, extrapolated): 8290 ng/mL
- clearance ([1]; female, BALB/cAnNCrj-nu/nu, mouse, plasma, intravenous 3 mg/kg, read-out: CLtot (converted)): 5.75 mL/min/kg
- Vd ([1]; female, BALB/cAnNCrj-nu/nu, mouse, plasma, intravenous 3 mg/kg, read-out: Vdss): 0.714 L/kg
- half-life ([1]; female, BALB/cAnNCrj-nu/nu, mouse, plasma, iv, 3 mg/kg, intravenous 3 mg/kg): 123 min
- AUC(0-inf) [1, 5]: 5600 ng·h/mL
- Cmax [1, 5]: 1970 ng/mL
- MRT [1, 5]: 3.28 h
- Tmax [1, 5]: 30 min
- bioavailability ([1]; female, BALB/cAnNCrj-nu/nu, mouse, plasma, oral 3 mg/kg vs intravenous 3 mg/kg, read-out: F (oral bioavailability)): 64.4%
- AUC(0-inf) [1, 6]: 27700 ng·h/mL
- Cmax [1, 6]: 10500 ng/mL
- MRT [1, 6]: 3.01 h
- Tmax [1, 6]: 30 min
- AUC(0-inf) [1, 7]: 118000 ng·h/mL
- Cmax [1, 7]: 31300 ng/mL
- MRT [1, 7]: 3.29 h
- Tmax [1, 7]: 60 min
- half-life ([1]; female, BALB/cAnNCrj-nu/nu, mouse, plasma, po, 3 mg/kg, oral 3 mg/kg): 125 min
- half-life ([1]; female, BALB/cAnNCrj-nu/nu, mouse, plasma, po, 10 mg/kg, oral 10 mg/kg): 104 min
- half-life ([1]; female, BALB/cAnNCrj-nu/nu, mouse, plasma, po, 30 mg/kg, across 3, 10, and 30 mg/kg): 104 to 125 min
- half-life ([1]; female, BALB/cAnNCrj-nu/nu, mouse, plasma, po, 30 mg/kg, oral 30 mg/kg): 111 min
- fraction unbound at 0.3 μg/mL ([2]; dog plasma, 0.3 μg/mL): 0.084
- fraction unbound ([2]; dog, plasma, dogs, 0.3–30 μg/mL, read-out: average fp (unbound fraction in plasma)): 0.089
- Freeze/thaw stability, mean percentage bias from the theoretical values ([3]; HQC 80 μg/mL): 0.6%
- Freeze/thaw stability, mean percentage bias from the theoretical values ([3]; MQC 1 μg/mL): 1.5%
- Frozen stability, mean percentage bias from the theoretical values ([3]; below − 15 °C, 4 weeks, HQC 80 μg/mL): 3.1%
